# In US20220193253A1, “SLOW-RELEASE CYTOKINE CONJUGATES” (ProLynx LLC, priority 2019, published 2022):
# Legend:
# IL-2Rαβγ = biological target: T1, IL-2Rαβγ (Homo sapiens, UniProt P01589+P14784+P31785); experiment: U2OS cell-based assay kit for IL-2Rαβγ binding (DiscoverX)
# T1 construct: host or cells: U2OS
# T1 sequence (P01589 22-272): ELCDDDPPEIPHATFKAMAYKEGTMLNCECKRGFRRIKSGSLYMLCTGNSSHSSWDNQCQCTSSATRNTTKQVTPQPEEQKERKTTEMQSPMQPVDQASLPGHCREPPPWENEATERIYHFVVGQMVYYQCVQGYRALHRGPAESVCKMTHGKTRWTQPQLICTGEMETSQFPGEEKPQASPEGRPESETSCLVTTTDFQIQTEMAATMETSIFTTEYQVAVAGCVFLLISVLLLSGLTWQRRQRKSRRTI
# T1 sequence (P14784 27-551): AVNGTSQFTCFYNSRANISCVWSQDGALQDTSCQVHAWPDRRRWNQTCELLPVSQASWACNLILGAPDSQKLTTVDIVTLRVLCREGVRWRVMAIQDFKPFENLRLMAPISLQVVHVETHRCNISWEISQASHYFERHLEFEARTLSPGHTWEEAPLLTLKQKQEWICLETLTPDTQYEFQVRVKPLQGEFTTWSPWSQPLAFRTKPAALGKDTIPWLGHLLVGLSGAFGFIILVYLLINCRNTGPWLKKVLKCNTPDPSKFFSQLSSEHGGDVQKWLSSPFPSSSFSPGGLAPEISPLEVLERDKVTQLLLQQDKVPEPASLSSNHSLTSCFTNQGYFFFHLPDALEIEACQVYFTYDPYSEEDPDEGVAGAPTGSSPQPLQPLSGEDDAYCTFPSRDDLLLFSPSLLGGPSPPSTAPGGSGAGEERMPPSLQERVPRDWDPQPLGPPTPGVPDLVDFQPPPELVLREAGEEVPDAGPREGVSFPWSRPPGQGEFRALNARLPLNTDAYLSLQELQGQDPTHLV
# T1 sequence (P31785 23-369): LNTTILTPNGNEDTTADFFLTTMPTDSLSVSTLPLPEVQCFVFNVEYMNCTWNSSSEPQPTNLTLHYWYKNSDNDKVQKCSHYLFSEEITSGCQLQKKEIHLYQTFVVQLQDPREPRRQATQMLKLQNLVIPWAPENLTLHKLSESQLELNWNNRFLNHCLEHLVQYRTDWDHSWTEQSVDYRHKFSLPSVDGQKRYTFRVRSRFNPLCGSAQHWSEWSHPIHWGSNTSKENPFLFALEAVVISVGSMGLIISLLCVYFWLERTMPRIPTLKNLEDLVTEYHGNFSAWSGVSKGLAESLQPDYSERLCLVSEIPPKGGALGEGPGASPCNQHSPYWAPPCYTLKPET
# Description: (§1) IL-2[N88R,C125S] was prepared by expression in HEK cells. Cell-based receptor binding assays were performed to evaluate the activity of the mutein against the high-affinity αβγ trimeric (Treg) and intermediate affinity βγ dimeric (Teff) forms of the IL-2 receptor (Table 1). The mutein binds only 6-fold poorer than IL-2 to the IL-2Rαβγ but about 900-fold poorer to the IL-2Rβγ.
# A U2OS cell-based assay kit for IL-2Rαβγ binding was performed according the manufacturer's instructions (DiscoverX, Part #93-1003E3CP0). Cells were plated at 100 μL (˜10,000 cells/well) in 96 well assay plates and grown for 24 hours at 37° C., 5% CO2. Cells were then treated for 6 hours at 37° C., 5% CO2 with dilution series of either WT IL-2, IL-2 N88R, C125S, or IL-2 N88R, C125S released from microspheres at pH 9.4. Eleven WT IL-2 concentrations were assayed between 2 pg/mL-100 ng/mL (0.1 pM-6 nM). Eleven IL-2 N88R, C125S and released IL-2 N88R, C125S concentrations were assayed between 200 pg/mL-10 μg/mL ([…]-600 nM). Treated cells were incubated with chemiluminescent substrate for 1 hour at ambient temperature in the dark, then luminescence was read with a Spectramax i3 plate reader with 250 ms integration time.
# [1] = tested on: T-cells in the spleen and islets; experiment: Pharmacodynamics of IL2 and IL2[N88R,C125S] in NOD mice (flow cytometry of spleen and islets); type: in vivo; details: daily injections 25,000 units for five days
# Description: Mice were sacrificed 2 hours after the last injection and the spleen and pancreas were harvested for flow cytometry analysis to measure changes in total number of T-cells and their differentiation in the spleen and islets.
# IL-2Rβγ = biological target: T2, IL-2Rβγ (Homo sapiens, UniProt P14784+P31785); experiment: U2OS cell-based assay kit for IL-2Rβγ binding (DiscoverX); details: mutein vs WT IL-2
# T2 construct: host or cells: U2OS
# T2 sequence (P14784 27-551): T1 sequence (P14784 27-551)
# T2 sequence (P31785 23-369): T1 sequence (P31785 23-369)
# Description: as §1
# A U2OS cell-based assay kit for IL-2Rβγ binding was performed according the manufacturer's instructions (DiscoverX, Part #93-0998E3CP5). Cells were plated at 50 μL (˜5,000 cells/well) in 96 well assay plates and grown for 48 hours at 37° C., 5% CO2. Cells were then treated for 6 hours at 37° C., 5% CO2 with dilution series of either WT IL-2, IL-2 N88R, C125S, or IL-2 N88R, C125S released from microspheres at pH 9.4. Eleven WT IL-2 concentrations were assayed between 17 pg/mL-1 μg/mL (1 pM-61 nM). Eleven IL-2 N88R, C125S concentrations were assayed between 1.7 ng/mL-100 μg/mL ([…]-6 μM). Eleven released remnant IL-2 N88R, C125S concentrations were assayed between 170 pg/mL-10 μg/mL ([…]-600 nM). Treated cells were incubated with chemiluminescent substrate for 1 hour at ambient temperature in the dark, then luminescence was read with a Spectramax i3 plate reader with 250 ms integration time.
# [2] = tested on: CD8+ memory T cells and NK cells in PBMCs; experiment: Pharmacodynamics of [aminopropyl]-RLI released from microsphere conjugate; type: in vivo, C57Black mice
# Description: The pharmacodynamics of the MS-RLI conjugate (34 μg, 1.5 nmol) was compared to that of empty MSs, and free RLI (2.5 μg, QDx4) in C57Black mice (n=5/group). Blood draws were taken over 13 days and the PBMCs surface stained using general laboratory procedures. Fixation and intracellular staining followed protocols from the eBioscience Foxp3/Transcription Factor Staining Buffer Set (ThermoFisher Scientific). Commercial antibodies used were against NK1.1, CD3, CD8, CD19, CD44 and Ki-67 expressing cells. Stained single cell suspension were analyzed using a LSRII flow cytometer (BD Biosciences) and analyzed using FlowJo cytometry analysis software (TreeStar, Ashland, Oreg.). Cell populations of particular interest were CD8+ memory T cells (CD44^hiCD8+), natural killer (CD3-NK1.1+) cells, proliferating CD8+ memory T cells (CD44^hiCD8+Ki-67+), and proliferating natural killer (CD3-NK1.1+Ki-67+) cells.
# [3] = in vivo; cited from earlier work
Substance,Fold-change βγ EC50 vs αβγ EC50 (selectivity for IL-2Rαβγ vs IL-2Rβγ) (IL-2Rαβγ),effect on CD4+ and CD8+ effector/memory T-cells in the spleen [1],effect on the T-cells in the islets compared to PBS vehicle [1],Fold-change of βγ EC50 vs WT IL-2 (fold poorer binding) (IL-2Rβγ),day of return of CD44hiCD8+ T cells to baseline levels ([2]; 2.5 μg QDx4) [days],"fold increase in the percentage of NK cells in the PBMCs ([2]; MS-RLI 34 μg single, free RLI 2.5 μg QDx4) [fold]","time post treatment at which increase in CD44hiCD8+ T cells was noticeable ([2]; MS-RLI 34 μg single, native RLI 2.5 μg QDx4) [days]",half-life of free RLI [3] [h]
"IL-2 N88R, C125S: IL-2 mutein, SEQ ID No: 3, prepared by expression in HEK cells","over 3,000 fold",little to no effect,little to no effect,about 900 fold,–,–,–,–
"RLI: receptor-linked interleukin: fusion protein comprising IL-15 and the sushi-domain of the receptor α-subunit, SEQ ID No: 16",–,–,–,–,≤ 7,~4,5,3
